Laboratory results taken from patent US9113629B2, “4-amino-6-(4-substituted-phenyl)-picolinates and 6-amino-2-(4-substituted-phenyl)-pyrimidine-4-carboxylates and their use as herbicides” (DOW AGROSCIENCES LLC, priority 2013, dated 2015).
Read-outs that look alike come from different tables or passages of the source.

Legend:
[1] = system: Key Grass and Sedge Weeds as well as Grass Crops; assay: Post-emergent Test II herbicidal activity (Table 6); assay type: in vivo; details: post-emergence, 336 h; for pest or weed control at 70 g/ha: application rate 70 g ai/ha; for pest or weed control at 140 g/ha: application rate 140 g ai/ha
Outline: (§1)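 Test species were raised 7–21 d under greenhouse conditions until reaching the first or second true leaf, sprayed with formulated compound at 187 L/ha, and kept subirrigated to avoid wash-off. Fourteen days later, damage was rated visually on a 0–100% scale against untreated plants.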

[2] = system: Key Broadleaf Weed and Crop Species; assay: Post-emergent Test II herbicidal activity (Table 5); assay type: in vivo; details: post-emergence, 336 h, post-emergent, 14 days after application; for pest or weed control at 70 g/ha: 70 g ai/ha; for pest or weed control at 140 g/ha: 140 g ai/ha
Outline: as §1

[3] = Triticum aestivum, TRZSS (wheat), read-out: Visual Growth Reduction (%) 14 Days After Application, TRZSS
[4] = CYPES: yellow nutsedge (Cyperus esculentus), read-out: Visual Growth Reduction (%) 14 Days After Application, CYPES
[5] = DIGSA: crabgrass (Digitaria sanguinalis), read-out: Visual Growth Reduction (%) 14 Days After Application, DIGSA
[6] = ECHCG: barnyardgrass (Echinochloa crus-galli), read-out: Visual Growth Reduction (%) 14 Days After Application, ECHCG
[7] = ORYSA: rice (Oryza sativa), read-out: Visual Growth Reduction (%) 14 Days After Application, ORYSA
[8] = SETFA: giant foxtail (Setaria faberi), read-out: Visual Growth Reduction (%) 14 Days After Application, SETFA
[9] = SORVU: grain sorghum (Sorghum vulgare), read-out: Visual Growth Reduction (%) 14 Days After Application, SORVU
[10] = ZEAMX: maize, corn (Zea mays), read-out: Visual Growth Reduction (%) 14 Days After Application, ZEAMX
[11] = ABUTH: velvetleaf (Abutilon theophrasti), read-out: Visual Growth Reduction (%) 14 Days After Application ABUTH
[12] = AMARE: redroot pigweed (Amaranthus retroflexus), read-out: Visual Growth Reduction (%) 14 Days After Application AMARE
[13] = BRSNN: oilseed-rape, canola (Brassica napus), read-out: Visual Growth Reduction (%) 14 Days After Application BRSNN
[14] = CHEAL: lambsquarters (Chenopodium album), read-out: Visual Growth Reduction (%) 14 Days After Application CHEAL
[15] = EPHHL: wild poinsettia (Euphorbia heterophylla), read-out: Visual Growth Reduction (%) 14 Days After Application EPHHL
[16] = HELAN: sunflower (Helianthus annuus), read-out: Visual Growth Reduction (%) 14 Days After Application HELAN
[17] = VIOTR: wild pansy (Viola tricolor), read-out: Visual Growth Reduction (%) 14 Days After Application VIOTR

| SMILES | pest or weed control at 70 g/ha [1, 3] [%] | pest or weed control at 140 g/ha [1, 3] [%] | pest or weed control at 70 g/ha [1, 4] [%] | pest or weed control at 140 g/ha [1, 4] [%] | pest or weed control at 70 g/ha [1, 5] [%] | pest or weed control at 140 g/ha [1, 5] [%] | pest or weed control at 70 g/ha [1, 6] [%] | pest or weed control at 140 g/ha [1, 6] [%] | pest or weed control at 70 g/ha [1, 7] [%] | pest or weed control at 140 g/ha [1, 7] [%] | pest or weed control at 70 g/ha [1, 8] [%] | pest or weed control at 140 g/ha [1, 8] [%] | pest or weed control at 70 g/ha [1, 9] [%] | pest or weed control at 140 g/ha [1, 9] [%] | pest or weed control at 70 g/ha [1, 10] [%] | pest or weed control at 140 g/ha [1, 10] [%] | pest or weed control at 70 g/ha [2, 11] [%] | pest or weed control at 140 g/ha [2, 11] [%] | pest or weed control at 70 g/ha [2, 12] [%] | pest or weed control at 140 g/ha [2, 12] [%] | also measured |
| --- | --- | --- | --- | --- | --- | --- | --- | --- | --- | --- | --- | --- | --- | --- | --- | --- | --- | --- | --- | --- | --- |
| COC(=O)c1nc(-c2cc(F)c(I)cc2F)nc(N)c1OC [Compound 101] | 30 to 44 | 30 to 44 | 45 to 59 | 45 to 59 | 45 to 59 | 60 to 74 | 0 to 29 | 85 to 94 | 0 to 29 | 0 to 29 | 0 to 29 | 60 to 74 | 30 to 44 | 45 to 59 | 60 to 74 | 60 to 74 | 85 to 94 | 85 to 94 | 85 to 94 | 85 to 94 | pest or weed control at 70 g/ha [2, 13]: 95 to 100%; pest or weed control at 140 g/ha [2, 13]: 95 to 100%; pest or weed control at 70 g/ha [2, 14]: 85 to 94%; pest or weed control at 140 g/ha [2, 14]: 85 to 94%; pest or weed control at 70 g/ha [2, 15]: 95 to 100%; pest or weed control at 140 g/ha [2, 15]: 95 to 100%; pest or weed control at 70 g/ha [2, 16]: 85 to 94%; pest or weed control at 140 g/ha [2, 16]: 85 to 94%; pest or weed control at 70 g/ha [2, 17]: 0 to 29%; pest or weed control at 140 g/ha [2, 17]: 0 to 29% |
| C=Cc1c(C(=O)OC)nc(-c2ccc(C#N)cc2)c(F)c1N [Compound 107, methyl 4-amino-6-(4-cyanophenyl)-5-fluoro-3-vinylpicolinate] | 0 to 29 | 0 to 29 | 0 to 29 | 60 to 74 | 0 to 29 | 0 to 29 | 0 to 29 | 0 to 29 | 0 to 29 | 0 to 29 | 0 to 29 | 0 to 29 | 0 to 29 | 0 to 29 | 0 to 29 | 0 to 29 | 75 to 84 | 75 to 84 | 0 to 29 | 0 to 29 | pest or weed control at 70 g/ha [2, 13]: 0 to 29%; pest or weed control at 140 g/ha [2, 13]: 0 to 29%; pest or weed control at 70 g/ha [2, 14]: 95 to 100%; pest or weed control at 140 g/ha [2, 14]: 95 to 100%; pest or weed control at 70 g/ha [2, 15]: 95 to 100%; pest or weed control at 140 g/ha [2, 15]: 95 to 100%; pest or weed control at 70 g/ha [2, 16]: 75 to 84%; pest or weed control at 140 g/ha [2, 16]: 85 to 94%; pest or weed control at 70 g/ha [2, 17]: 0 to 29%; pest or weed control at 140 g/ha [2, 17]: 0 to 29% |
